By MIC is commonly meant the lowest concentration found to suppress growth.

One compound from ChEMBL document CHEMBL5506059, “Cyanomethylquinolones as a New Class of Potential Multitargeting Broad-Spectrum Antibacterial Agents” (J Med Chem, 2024) can be followed below.

Data set [1] has as its system Staphylococcus aureus. The data set can be described thus: Antibacterial activity against methicillin resistant Staphylococcus aureus clinical isolate assessed as inhibition of bacterial growth incubated for 24 hrs. It counts as functional.
Data set [2] has as its system Staphylococcus aureus. The data set can be described thus: Antibacterial activity against Staphylococcus aureus ATCC 25923 assessed as inhibition of bacterial growth incubated for 24 hrs. The format is functional.
For data set [3], the system named is Escherichia coli. The data set can be described thus: Antibacterial activity against Escherichia coli clinical isolate assessed as inhibition of bacterial growth incubated for 24 hrs. It counts as functional.
In data set [4] the test system is Escherichia coli. The data set can be described thus: Antibacterial activity against Escherichia coli ATCC 25922 assessed as inhibition of bacterial growth incubated for 24 hrs. It counts as functional.
Data set [5] relates to Pseudomonas aeruginosa. In words: Antibacterial activity against Pseudomonas aeruginosa clinical isolate assessed as inhibition of bacterial growth incubated for 24 hrs. It counts as functional.
Data set [6] has as its system Staphylococcus aureus. In words: Potency index, ratio of ciprofloxacin MIC to test compound MIC for antibacterial activity against Staphylococcus aureus clinical isolate assessed as inhibition of bacterial growth incubated for 24 hrs. The format is functional.
The test system of the next data set is Streptococcus pneumoniae. The data set can be described thus: Antibacterial activity against Streptococcus pneumoniae ATCC 6305 assessed as inhibition of bacterial growth incubated for 24 hrs. It counts as functional.
The test system of data set [7] is Staphylococcus epidermidis. In words: Antibacterial activity against Staphylococcus epidermidis ATCC 12228 assessed as inhibition of bacterial growth incubated for 24 hrs. It counts as functional.
Data set [8] concerns Staphylococcus aureus. In words: Antibacterial activity against methicillin-resistant Staphylococcus aureus ATCC 43300 assessed as inhibition of bacterial growth incubated for 24 hrs. The format is functional.
For data set [9], the system named is Staphylococcus aureus. In words: Antibacterial activity against Staphylococcus aureus ATCC 12600 assessed as inhibition of bacterial growth incubated for 24 hrs. It counts as functional.
Data set [10] relates to Staphylococcus aureus. The data set can be described thus: Antibacterial activity against Staphylococcus aureus CMCC(B)26003 assessed as inhibition of bacterial growth incubated for 24 hrs. It counts as functional.
In another data set the test system is Enterococcus faecium. In words: Antibacterial activity against Enterococcus faecium ATCC 19434 assessed as inhibition of bacterial growth incubated for 24 hrs. It counts as functional.
For another data set, the system named is Enterococcus faecalis. In words: Antibacterial activity against vancomycin-resistant Enterococcus faecalis clinical isolate p1-2007226001 assessed as inhibition of bacterial growth incubated for 24 hrs. It counts as functional.
A further data set has as its system Streptococcus pyogenes. The data set can be described thus: Potency index, ratio of ciprofloxacin MIC to test compound MIC for antibacterial activity against Streptococcus pyogenes ATCC 19615 assessed as inhibition of bacterial growth incubated for 24 hrs. The format is functional.
In a further data set the test system is Erythrocyte. The data set can be described thus: Hemolytic activity in human Red blood cells assessed as concentration required for 5% hemolysis measured after 1.5 hrs by absorbance based assay. The format is toxicity, cell-based.
A short description of data set [11]: Hemolytic activity in human Red blood cells at 256 ug/ml measured after 1.5 hrs by absorbance based assay relative to control. It counts as toxicity, cell-based, Erythrocyte. As to conditions: red blood cells (erythrocytes), at 256 µg/mL, read-out: Activity.
Another data set concerns HUVEC. In words: Cytotoxicity against HUVEC cells assessed as reduction in cell viability at 0.78 to 25 ug/ml measured after 24 hrs by MTT assay. It counts as toxicity, cell-based. Particulars: human, dose 0.78-25 µg/ml.
In data set [12] the test system is Cell membrane. The data set can be described thus: Induction of cell membrane depolarization in Pseudomonas aeruginosa assessed as increase in fluorescence intensity at 1 ug/ml measured for 30 mins by DiSC35 dye based fluorescence analysis. It counts as cell membranes. Particulars: dose 1.0 µg/ml.
The test system of data set [13] is Cell membrane. The data set can be described thus: Induction of cell membrane permeability in methicillin-resistant Staphylococcus aureus assessed as increase in fluorescence intensity at 1 to 2 ug/ml incubated for 6 hrs by PI staining based fluorescence analysis. As to conditions: dose 1-2 µg/ml. It counts as cell membranes.
Data set [14] relates to Pseudomonas aeruginosa. In words: Antibacterial activity against Pseudomonas aeruginosa assessed as reduction in metabolic activity by measuring reduction in fluorescence intensity at 0.5 to 2 times MIC incubated for 6 hrs by alamar blue assay. The format is functional, organism-based. A general note: Alamar Blue is a resazurin reagent that responds to reducing activity.

The test system of data set [15] is Staphylococcus aureus. In words: Antibacterial activity against methicillin resistant Staphylococcus aureus infected in female ICR mouse assessed as log reduction in bacterial load at 10 mg/kg pre-infected with bacteria for 24 hrs followed by compound administration on wound site every 6 hrs for 2 times and measured 36 hrs post infection. The format is functional. As to conditions: time 12 hrs.

In brackets after ≈: the same amount, converted by molar mass. Activity calls are given as the source filed them. The calls are words filed in the database; no cut-off is given here.

Turning to `N#CCc1cc2c(cc1F)c(=O)c(C(=O)O)cn2C1CC1`, the MIC in the data set on Staphylococcus aureus [1] amounted to 0.5 µg/mL (≈ 1.75 µM); in the data set with Staphylococcus aureus [2], 4 µg/mL (≈ 14 µM); with Escherichia coli [3], 2 µg/mL (≈ 6.99 µM); in the data set with Escherichia coli [4], 0.5 µg/mL (≈ 1.75 µM); in the data set on Pseudomonas aeruginosa [5] it was 0.25 µg/mL (≈ 0.873 µM); in the data set with Streptococcus pneumoniae, 0.5 µg/mL (≈ 1.75 µM). Besides, the MIC stood at 0.5 µg/mL (≈ 1.75 µM) in [7]; 0.5 µg/mL (≈ 1.75 µM) with Staphylococcus aureus [8]; 1 µg/mL (≈ 3.49 µM) in the data set on Staphylococcus aureus [9]; 0.125 µg/mL (≈ 0.437 µM) in the data set on Staphylococcus aureus [10]; 2 µg/mL (≈ 6.99 µM) in the data set on Enterococcus faecium; 4 µg/mL (≈ 14 µM) in the data set with Enterococcus faecalis. Also, the values for the Ratio in the data set with Staphylococcus aureus [6] and in the data set on Streptococcus pyogenes were 8 and 64, respectively. For the same compound, in the data set with Erythrocyte, the HC5 is more than 10000 µg/mL. Also, the hemolysis at 1.5 h, 256 ug/ml in data set [11] is less than 1%. Moreover, the Activity entry in the data set with HUVEC is on record as “Non-Toxic”. Further, the result with Cell membrane [12], with Cell membrane [13] and with Pseudomonas aeruginosa [14] was Active. Also, the “log(activity)” value in the data set with Staphylococcus aureus [15] was approximately 2.5.
